Reference: US20040105869A1, “Methods for cultivation of Kabanoanatake secreting and containing active ingredients for prophylactic and therapeutic agents against microbe-related syndromes including HIV” (priority 2002, published 2004)
≈ marks a conversion by molar mass, not a printed value.

What was measured:
Format in all cases: cell-based
[1] = system: H. pylori strain NCTC 11637; experiment: Agar plate dilution method, control antibiotic; settings: Helicobacter pylori, NCTC11637, agar plate dilution method
[2] = system: H. pylori strain NCTC 11916; experiment: Agar plate dilution method, control antibiotic; settings: Helicobacter pylori, NCTC11916, agar plate dilution method
[3] = system: H. pylori strain NCTC 11916; experiment: Disc diffusion method against H. pylori; settings: Helicobacter pylori, NCTC11916, Disk
Description: (§1) Each sample was extracted using DMSO at 10 w/v % to make stock solution, further from which ten-fold serial dilution was made by DMSO, to prepare the test solution. H. pylori. strain NCTC 11637 and strain NCTC 11916 were cultured on blood agar which added 5% defibrinated horse blood to Brucella Agar (BBL) at 37° C. for 3 days, under microaerophile surroundings (N2 80%, CO2 15%, O2 5%). The strains were suspended in Brucella broth added 0.5 mg/ml of BSA fraction V (Sigma A-4503) to a concentration of 10^8 cfu/ml, to prepare inoculum organism liquid, and 0.1 ml of the liquid was smeared on BSA agar added the said BSA, after that anti-bacterial activity against H. pylori was determined by Disc method, as described below. Each test solution of 20 μl was made to absorb in a sensitivity disk (8 mm in diameter, Advantech, thin-model), placed on agar smeared with strains, cultured under microaerophile surroundings at 37° C. for 3 to 5 days. After that, growth-inhibitory zone around the disk showing more than 1 mm was regarded as positive.

[4] = system: H. pylori strain NCTC 11637; experiment: Disc diffusion method against H. pylori; settings: Helicobacter pylori, NCTC11637, Disk
Description: as §1

## CC[C@H]1OC(=O)[C@H](C)[C@@H](O[C@H]2C[C@@](C)(OC)[C@@H](O)[C@H](C)O2)[C@H](C)[C@@H](O[C@@H]2O[C@H](C)C[C@H](N(C)C)[C@H]2O)[C@](C)(O)C[C@@H](C)C(=O)[C@H](C)[C@@H](O)[C@]1(C)O [Erythromycin]
[1]; BSA agar
  MIC: 0.03 µg/mL (≈ 0.0409 µM)
[1]; blood agar
  MIC: 0.05 µg/mL (≈ 0.0681 µM)
[2]; BSA agar
  MIC: 0.03 µg/mL (≈ 0.0409 µM)
[2]; blood agar
  MIC: 0.05 µg/mL (≈ 0.0681 µM)
[3]; BSA agar
  MIC: 1.6 µg/mL (≈ 2.18 µM)
[3]; blood agar
  MIC: 6.3 µg/mL (≈ 8.58 µM)
[4]; BSA agar
  MIC: 3.1 µg/mL (≈ 4.22 µM)
[4]; blood agar
  MIC: 6.3 µg/mL (≈ 8.58 µM)
